Measured values as given in the supplement of paper PMC10307832.

Key:
Experiment in all cases: relative viability (nuclei count vs DMSO), 5 days (fraction); higher = more cells survive
Metformin + Tozasertib = compound: CN(C)C(=N)NC(=N)N [Metformin] + Cc1cc(Nc2cc(N3CCN(C)CC3)nc(Sc3ccc(NC(=O)C4CC4)cc3)n2)n[nH]1 [Tozasertib] (partner 0.1 µM)
Method in brief: (§1)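 Relative viability divides the nuclei count in treated wells by that in vehicle wells. Lung cancer cell lines were seeded in 1536-well plates, dosed by pin tool the next day, and fixed and stained after 5 days in one step with final 0.05% Triton X-100, 1% formaldehyde and 1 ug/ml Hoechst. Dosing was a single drug or a fixed anchor-drug dose plus five library-drug doses (not always all listed) in √10 steps, and values are medians of duplicate plates imaged at 4×.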

Apatinib + Navitoclax = compound: N#CC1(c2ccc(NC(=O)c3cccnc3NCc3ccncc3)cc2)CCCC1 [Apatinib] + CC1(C)CCC(c2ccc(Cl)cc2)=C(CN2CCN(c3ccc(C(=O)NS(=O)(=O)c4ccc(N[C@H](CCN5CCOCC5)CSc5ccccc5)c(S(=O)(=O)C(F)(F)F)c4)cc3)CC2)C1 [Navitoclax] (partner 0.5 µM)
Method in brief: as §1

Apatinib + Crizotinib = compound: N#CC1(c2ccc(NC(=O)c3cccnc3NCc3ccncc3)cc2)CCCC1 [Apatinib] + C[C@@H](Oc1cc(-c2cnn(C3CCNCC3)c2)cnc1N)c1c(Cl)ccc(F)c1Cl [Crizotinib] (partner 1 µM)
Method in brief: as §1

Apatinib + Pemetrexed = compound: N#CC1(c2ccc(NC(=O)c3cccnc3NCc3ccncc3)cc2)CCCC1 [Apatinib] + Nc1nc2[nH]cc(CCc3ccc(C(=O)N[C@@H](CCC(=O)O)C(=O)O)cc3)c2c(=O)[nH]1 [Pemetrexed] (partner 0.2 µM)
Method in brief: as §1

In the case of NCI-H1755, the relative viability (Metformin + Tozasertib; first compound 10 µM) is reported as 0.446, the relative viability (Metformin + Tozasertib; first compound 31.62 µM) is reported as 0.519 and the relative viability (Metformin + Tozasertib; first compound 100 µM) is reported as 0.474. For the same cell line, the relative viability (Metformin + Tozasertib; first compound 316.23 µM) was 0.509, the relative viability (Metformin + Tozasertib; first compound 1000 µM) was 0.497 and the relative viability (Apatinib + Navitoclax; first compound 0.08 µM) was 1. It also gave a relative viability (Apatinib + Navitoclax; first compound 0.253 µM) of 0.968, a relative viability (Apatinib + Navitoclax; first compound 0.8 µM) of 0.963 and a relative viability (Apatinib + Navitoclax; first compound 2.53 µM) of 0.952. For the same cell line, the relative viability (Apatinib + Navitoclax; first compound 8 µM) was 0.865, the relative viability (Apatinib + Crizotinib; first compound 0.08 µM) was 0.858 and the relative viability (Apatinib + Crizotinib; first compound 0.253 µM) was 0.885. It also gave a relative viability (Apatinib + Crizotinib; first compound 0.8 µM) of 0.911, a relative viability (Apatinib + Crizotinib; first compound 2.53 µM) of 0.803 and a relative viability (Apatinib + Crizotinib; first compound 8 µM) of 0.769. It also gave a relative viability (Apatinib + Pemetrexed; first compound 0.08 µM) of 0.423, a relative viability (Apatinib + Pemetrexed; first compound 0.253 µM) of 0.441 and a relative viability (Apatinib + Pemetrexed; first compound 0.8 µM) of 0.402. It also gave a relative viability (Apatinib + Pemetrexed; first compound 2.53 µM) of 0.329 and a relative viability (Apatinib + Pemetrexed; first compound 8 µM) of 0.364.

In the case of LOU-NH91, the relative viability (Metformin + Tozasertib; first compound 10 µM) is reported as 0.595, the relative viability (Metformin + Tozasertib; first compound 31.62 µM) is reported as 0.633 and the relative viability (Metformin + Tozasertib; first compound 100 µM) is reported as 0.703. For the same cell line, the relative viability (Metformin + Tozasertib; first compound 316.23 µM) was 0.633, the relative viability (Metformin + Tozasertib; first compound 1000 µM) was 0.65 and the relative viability (Apatinib + Navitoclax; first compound 0.08 µM) was 0.692. For the same cell line, the relative viability (Apatinib + Navitoclax; first compound 0.253 µM) was 0.744, the relative viability (Apatinib + Navitoclax; first compound 0.8 µM) was 0.517 and the relative viability (Apatinib + Navitoclax; first compound 2.53 µM) was 0.565. It also gave a relative viability (Apatinib + Navitoclax; first compound 8 µM) of 0.58, a relative viability (Apatinib + Crizotinib; first compound 0.08 µM) of 0.76 and a relative viability (Apatinib + Crizotinib; first compound 0.253 µM) of 0.751. It also gave a relative viability (Apatinib + Crizotinib; first compound 0.8 µM) of 0.722, a relative viability (Apatinib + Crizotinib; first compound 2.53 µM) of 0.69 and a relative viability (Apatinib + Crizotinib; first compound 8 µM) of 0.629. For the same cell line, the relative viability (Apatinib + Pemetrexed; first compound 0.08 µM) was 0.418, the relative viability (Apatinib + Pemetrexed; first compound 0.253 µM) was 0.396 and the relative viability (Apatinib + Pemetrexed; first compound 0.8 µM) was 0.424. It also gave a relative viability (Apatinib + Pemetrexed; first compound 2.53 µM) of 0.336 and a relative viability (Apatinib + Pemetrexed; first compound 8 µM) of 0.303.

LC-2-ad showed a relative viability (Metformin + Tozasertib; first compound 31.62 µM) of 0.412, a relative viability (Metformin + Tozasertib; first compound 100 µM) of 0.524 and a relative viability (Metformin + Tozasertib; first compound 316.23 µM) of 0.469. It also gave a relative viability (Metformin + Tozasertib; first compound 1000 µM) of 0.506, a relative viability (Apatinib + Navitoclax; first compound 0.08 µM) of 0.414 and a relative viability (Apatinib + Navitoclax; first compound 0.253 µM) of 0.457. It also gave a relative viability (Apatinib + Navitoclax; first compound 0.8 µM) of 0.387, a relative viability (Apatinib + Navitoclax; first compound 2.53 µM) of 0.287 and a relative viability (Apatinib + Navitoclax; first compound 8 µM) of 0.235. It also gave a relative viability (Apatinib + Crizotinib; first compound 0.08 µM) of 0.477, a relative viability (Apatinib + Crizotinib; first compound 0.253 µM) of 0.496 and a relative viability (Apatinib + Crizotinib; first compound 0.8 µM) of 0.463. It also gave a relative viability (Apatinib + Crizotinib; first compound 2.53 µM) of 0.473, a relative viability (Apatinib + Crizotinib; first compound 8 µM) of 0.482 and a relative viability (Apatinib + Pemetrexed; first compound 0.08 µM) of 0.248. The relative viability (Apatinib + Pemetrexed; first compound 0.253 µM) was 0.299, the relative viability (Apatinib + Pemetrexed; first compound 0.8 µM) was 0.259 and the relative viability (Apatinib + Pemetrexed; first compound 2.53 µM) was 0.267. It also gave a relative viability (Apatinib + Pemetrexed; first compound 8 µM) of 0.233.

ChaGo-K-1 gave a relative viability (Metformin + Tozasertib; first compound 10 µM) of 0.254, a relative viability (Metformin + Tozasertib; first compound 31.62 µM) of 0.281 and a relative viability (Metformin + Tozasertib; first compound 100 µM) of 0.246. For the same cell line, the relative viability (Metformin + Tozasertib; first compound 316.23 µM) was 0.202, the relative viability (Metformin + Tozasertib; first compound 1000 µM) was 0.22 and the relative viability (Apatinib + Navitoclax; first compound 0.253 µM) was 1.4. The relative viability (Apatinib + Navitoclax; first compound 0.8 µM) was 0.971, the relative viability (Apatinib + Navitoclax; first compound 2.53 µM) was 0.888 and the relative viability (Apatinib + Navitoclax; first compound 8 µM) was 0.993. It also gave a relative viability (Apatinib + Crizotinib; first compound 0.253 µM) of 1.09, a relative viability (Apatinib + Crizotinib; first compound 0.8 µM) of 1.1 and a relative viability (Apatinib + Crizotinib; first compound 2.53 µM) of 1.05. For the same cell line, the relative viability (Apatinib + Crizotinib; first compound 8 µM) was 0.901, the relative viability (Apatinib + Pemetrexed; first compound 0.08 µM) was 0.27 and the relative viability (Apatinib + Pemetrexed; first compound 0.253 µM) was 0.249. It also gave a relative viability (Apatinib + Pemetrexed; first compound 0.8 µM) of 0.263, a relative viability (Apatinib + Pemetrexed; first compound 2.53 µM) of 0.24 and a relative viability (Apatinib + Pemetrexed; first compound 8 µM) of 0.245.
